Results taken from PMC12049818, “Identification of NUV-244 as a PNPLA3 I148M degrading small molecule” (iScience, 2025).

Legend:
[1] = target: T1, PNPLA3 I148M (Homo sapiens, UniProt Q9NST1, I148M); assay: nanoDSF thermal shift, PNPLA3 I148M protein; format: binding; conditions: ligand 25 μM
T1 sequence (Q9NST1 1-481 I148M): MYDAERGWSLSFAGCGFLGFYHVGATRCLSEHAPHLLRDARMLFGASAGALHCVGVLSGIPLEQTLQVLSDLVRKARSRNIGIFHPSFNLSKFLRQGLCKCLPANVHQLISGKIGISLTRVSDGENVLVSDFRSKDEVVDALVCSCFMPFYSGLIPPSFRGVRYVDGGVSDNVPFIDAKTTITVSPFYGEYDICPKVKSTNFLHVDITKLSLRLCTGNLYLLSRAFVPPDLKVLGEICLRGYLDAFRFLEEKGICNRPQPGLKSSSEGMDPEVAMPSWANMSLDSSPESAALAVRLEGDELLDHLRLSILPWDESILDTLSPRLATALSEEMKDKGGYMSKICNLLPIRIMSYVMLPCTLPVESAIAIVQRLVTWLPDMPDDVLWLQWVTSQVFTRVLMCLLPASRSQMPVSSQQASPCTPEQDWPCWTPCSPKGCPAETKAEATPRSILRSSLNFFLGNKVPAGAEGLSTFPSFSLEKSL
Source text: To investigate the mode of action of NUV-244, we evaluated its direct binding to the PNPLA3 I148M protein using nano differential scanning fluorimetry (nanoDSF). In this assay, compounds that bind to a target protein can lead to thermal stabilization, preventing protein denaturation, which is reflected in a shift of the protein melting curve.
Full-length wild-type PNPLA3 (Q9NST1), mutant PNPLA3 (I148M), and PNPLA2 (Q96AD5) were cloned into the pVL1393 vector with an N-terminal Flag-Tag. Proteins were expressed in SF9 cells infected at a multiplicity of infection (MOI) of 1 for 72 hours. Protein purification was performed using a two-step process. The first step involved affinity purification using M2 anti-Flag agarose beads. This was followed by gel filtration chromatography using a Superdex 200 column. Thermal melting experiments were carried out using a Prometheus NT.48 instrument (NanoTemper Technologies). Proteins were prepared in 20 mM Tris-HCl pH 7.4, 100 mM NaCl, 5 % Glycerol, 2 mM DTT and 0.2 mg/mL was used as a final concentration in 50 μL volume. For binding experiments, ligands were added to the mixture at a final concentration of 25 μM, DMSO was used as control. […] The intrinsic protein fluorescence at 330 and 350 nm was recorded. Data were analysed using Prometheus NT.48 software. Thermal shifts (ΔTm) were calculated, and Z-scores greater than 6 indicated robust stabilization. […]

[2] = test system: Huh7 cells; assay: Incucyte growth curves, Huh7; format: cell-based, human; conditions: 1μM or 5μM; compared to DMSO
Experimental: Huh7, Huh7 PNPLA3 I148M, Huh7 PNPLA3, Hep3b and LX-2 cells were seeded at a concentration of 1000 cells/well in 60 μl of growth medium on 384-well microtiter plates (Revvity, Waltham, MA, USA, PhenoPlate 384-well microplate, #6057308) and stored in a 37°C incubator with 5% CO2 and 95% humidity overnight. Next day cells were treated with DMSO as control (1% final concentration) or compound (1μM or 5μM final concentration) and cell density was recorded in the Incucyte® life cell imager (Sartorius, Göttingen, Germany) every 4 hours over a period of 5 days. Growth curves were generated by monitoring confluence over time. Proliferative capacity of PNPLA3 I148M-expressing cells was compared to control cells, and the restoration of proliferative fitness was analyzed.

[3] = test system: Huh7 cells; assay: Total nuclear count in Huh7 cells; format: cell-based, human; conditions: effective concentrations
Experimental: Indeed, NUV-244 has no effect on total nuclear count at effective concentrations in Huh7 cells and we frequently observed mitotic cells in the Hoechst channel even after 24h incubation (data not shown). This indicates low toxicity of NUV-244 at effective concentrations. We validated this by recording the growth curves of different cell lines upon NUV-244 incubation and found no effects of 1μM or 5μM NUV-244 on the proliferative capacity of Hep3B cells, or Huh7 and LX-2 cells compared to DMSO treated cells (Figure 6A). PNPLA3 I148M expression has been reported to sensitize cells against lipotoxicity and to induce mitochondrial dysfunction.[32]^,[34]^,[35]^,[36]^,[37]
Assay plates were evaluated based on Z’ scores (>0.6) and signal-to-background ratio (>12) using Genedata Screener® for HTS and Condoseo modules (Genedata, Switzerland). Normalization, quality control, and fitting curves for EC50 determination of tested compounds were performed with Genedata Screener® for high-content screening and Genedata Condoseo modules (Genedata AG, Basel, Switzerland). More than 820K cpds were screened on 791 1536W plates in 11 runs covering three weeks of primary HTS. Automated image analysis routines were set up to quantify the number, morphology and intensity of nuclei, lipid droplets and the intensity of PNPLA3 I148M-tagRFP on lipid droplets. […]

SMILES: Cc1cccc(Cc2nc(C)c(C(=O)Nc3cc(O)ccc3Cl)s2)c1 [NUV-244]
- ΔTm PNPLA3 I148M [1]: 5.82 °C
- effect on proliferative capacity, Huh7 [2]: no effects
- effect on total nuclear count [3]: no effect
